Test [1] has as its target T1, human TRPA1 (Homo sapiens, UniProt O75762).
T1 construct: expressed in transfected cells; host or cells: CHO cells (G-418 selection)
In words: 45Calcium uptake assay, inhibition of AITC induced calcium uptake in human TRPA1 expressing CHO cells. To be noted: AITC 30 μM; for inhibition at 1 µM: 1.0 μM compound, read-out: human TRPA1 Percentage inhibition at 1.0 μM; for inhibition at 10 µM: 10.0 μM compound, read-out: human TRPA1 Percentage inhibition at 10.0 μM. It counts as cell-based. The text has this:
(§1) The illustrative examples of the present invention are screened for TRPA1 activity according to a modified procedure described in (a) Tóth, A. et al. Life Sciences, 2003, 73, 487-498. (b) McNamara C, R. et al, Proc. Natl. Acad. Sci. U.S.A., 2007, 104, 13525-13530. The screening of the compounds can be carried out by other methods and procedures known to persons skilled in the art.
(§2) Screening for TRPA1 Antagonist Using the ^45Calcium Uptake Assay:
(§3) The inhibition of TRPA1 receptor activation was measured as inhibition of allyl isothiocyanate (AITC) induced cellular uptake of radioactive calcium.
(§4) Test compounds were dissolved in 100% DMSO to prepare 10 mM stock and then diluted using plain medium with 0.1% BSA and 1.8 mM CaCl2 to get the desired concentration. The final concentration of DMSO in the reaction was 0.5% (v/v). Human TRPA1 expressing CHO cells were grown in F-12 DMEM medium with 10% FBS, 1% penicillin-streptomycin solution, and 400 μg/ml of G-418. Rat TRPA1 expressing CHO cells were grown in F-12 DMEM medium with 10% FBS, 1% penicillin-streptomycin solution, and 400 μg/ml of Zeocin. Cells were seeded 24 h prior to the assay in 96 well plates so as to get ˜50,000 cells per well on the day of experiment. Cells were treated with the test compounds for 10 minutes followed by the addition of AITC at a final concentration of 30 μM (for human TRPA1) and/or 10 μM (for rat TRPA1) and 5 μCi/ml ^45Ca^+2 for 3 minutes. Cells were washed and lysed using a buffer containing 1% Triton X-100, 0.1% deoxycholate and 0.1% SDS. Radioactivity in the lysate was measured in a Packard TopCount after addition of liquid scintillant. (Toth et al, Life Sciences (2003) 73, 487-498; McNamara C R et al, Proceedings of the National Academy of Sciences, (2007) 104, 13525-13530).
(§5) Concentration response curves were plotted as a % of maximal response obtained in the absence of test antagonist. IC50 values can be calculated from concentration response curve by nonlinear regression analysis using GraphPad PRISM software.

Test [2] deals with T2, rat TRPA1 (Rattus norvegicus, UniProt Q6RI86).
T2 construct: expressed in transfected cells; host or cells: CHO cells (Zeocin selection)
T2 sequence (Q6RI86 whole entry): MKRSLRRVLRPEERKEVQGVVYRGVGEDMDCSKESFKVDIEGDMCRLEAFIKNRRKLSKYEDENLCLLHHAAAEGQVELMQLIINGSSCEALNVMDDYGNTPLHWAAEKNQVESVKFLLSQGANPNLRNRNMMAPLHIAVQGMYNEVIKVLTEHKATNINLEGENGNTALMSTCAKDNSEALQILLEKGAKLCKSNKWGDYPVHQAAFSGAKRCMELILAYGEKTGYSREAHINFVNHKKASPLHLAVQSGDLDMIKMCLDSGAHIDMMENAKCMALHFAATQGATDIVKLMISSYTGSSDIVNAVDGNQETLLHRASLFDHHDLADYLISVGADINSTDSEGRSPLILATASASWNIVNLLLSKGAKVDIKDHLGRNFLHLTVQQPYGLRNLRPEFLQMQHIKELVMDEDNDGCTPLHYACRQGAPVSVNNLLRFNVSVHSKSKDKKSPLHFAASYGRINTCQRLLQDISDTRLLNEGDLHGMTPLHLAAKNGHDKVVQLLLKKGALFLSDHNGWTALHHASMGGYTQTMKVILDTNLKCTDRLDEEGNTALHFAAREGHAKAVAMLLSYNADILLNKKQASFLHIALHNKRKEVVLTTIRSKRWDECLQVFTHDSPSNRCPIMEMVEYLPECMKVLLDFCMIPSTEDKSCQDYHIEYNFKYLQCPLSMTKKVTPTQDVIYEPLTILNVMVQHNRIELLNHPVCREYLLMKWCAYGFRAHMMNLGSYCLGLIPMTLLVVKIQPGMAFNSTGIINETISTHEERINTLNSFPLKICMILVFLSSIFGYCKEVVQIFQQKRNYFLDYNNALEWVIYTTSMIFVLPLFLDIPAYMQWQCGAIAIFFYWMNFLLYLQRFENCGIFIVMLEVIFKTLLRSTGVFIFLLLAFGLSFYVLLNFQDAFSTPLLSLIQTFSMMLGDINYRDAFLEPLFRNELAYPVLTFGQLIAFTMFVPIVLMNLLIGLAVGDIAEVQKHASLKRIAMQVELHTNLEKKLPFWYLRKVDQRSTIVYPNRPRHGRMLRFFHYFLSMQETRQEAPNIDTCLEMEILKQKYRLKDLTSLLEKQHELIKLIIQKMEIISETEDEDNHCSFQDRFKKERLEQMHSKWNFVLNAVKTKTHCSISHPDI
Description: 45Calcium uptake assay, inhibition of AITC induced calcium uptake in rat TRPA1 expressing CHO cells. Format: cell-based. To be noted: AITC 10 μM; for inhibition at 1 µM: 1.0 μM compound, read-out: rat TRPA1 Percentage inhibition at 1.0 μM; for inhibition at 10 µM: 10.0 μM compound, read-out: rat TRPA1 Percentage inhibition at 10.0 μM.
Source text: as §1, §2, §3, §4, §5

T1 sequence (O75762 whole entry): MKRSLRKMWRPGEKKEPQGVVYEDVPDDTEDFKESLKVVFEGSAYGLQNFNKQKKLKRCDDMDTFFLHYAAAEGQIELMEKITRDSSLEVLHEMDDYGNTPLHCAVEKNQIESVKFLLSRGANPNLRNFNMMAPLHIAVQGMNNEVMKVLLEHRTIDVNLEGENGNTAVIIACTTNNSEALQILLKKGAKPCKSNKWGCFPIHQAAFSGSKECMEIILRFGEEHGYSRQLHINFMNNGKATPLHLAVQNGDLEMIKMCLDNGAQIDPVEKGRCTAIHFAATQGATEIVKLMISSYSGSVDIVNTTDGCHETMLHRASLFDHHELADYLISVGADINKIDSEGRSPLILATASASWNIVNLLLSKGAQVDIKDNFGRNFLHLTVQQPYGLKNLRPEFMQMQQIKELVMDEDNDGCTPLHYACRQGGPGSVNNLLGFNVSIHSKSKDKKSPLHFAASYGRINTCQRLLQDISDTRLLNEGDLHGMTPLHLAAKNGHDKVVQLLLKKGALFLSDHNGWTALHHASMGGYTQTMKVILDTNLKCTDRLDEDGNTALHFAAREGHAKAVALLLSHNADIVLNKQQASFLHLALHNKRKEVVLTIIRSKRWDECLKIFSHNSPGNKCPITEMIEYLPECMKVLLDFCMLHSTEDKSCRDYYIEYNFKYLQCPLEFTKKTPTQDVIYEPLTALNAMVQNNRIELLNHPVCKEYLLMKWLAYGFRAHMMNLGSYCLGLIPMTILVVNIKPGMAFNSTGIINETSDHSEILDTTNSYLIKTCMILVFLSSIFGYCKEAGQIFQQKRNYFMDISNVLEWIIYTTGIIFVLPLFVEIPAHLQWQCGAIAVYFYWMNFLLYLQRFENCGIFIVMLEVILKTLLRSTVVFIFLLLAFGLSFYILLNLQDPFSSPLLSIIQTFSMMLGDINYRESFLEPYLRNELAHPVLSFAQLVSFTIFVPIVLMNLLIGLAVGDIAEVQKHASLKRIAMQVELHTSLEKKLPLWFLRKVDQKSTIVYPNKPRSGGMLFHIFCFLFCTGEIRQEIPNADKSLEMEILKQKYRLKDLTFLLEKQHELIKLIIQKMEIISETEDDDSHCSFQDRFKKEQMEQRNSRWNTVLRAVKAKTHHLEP

As to `Cn1c(=O)c2c(CC(=O)Nc3nc(-c4cccc(C(F)(F)F)c4)cs3)snc2n(C)c1=O` [Example 1, 2-(5,7-Dimethyl-4,6-dioxo-4,5,6,7-tetrahydro[1,2]thiazolo[3,4-d]pyrimidin-3-yl)-N-{4-[3-(trifluoromethyl)phenyl]-1,3-thiazol-2-yl}acetamide], in test [1], the inhibition (in general, how much of the control response was suppressed) at 1 µM is 95.2%; the inhibition at 10 µM was 100%; the IC50 (as a rule, the concentration that inhibits the measured activity by half) is under 50 nM. Further, in test [2], the inhibition at 1 µM was 71.3%, the inhibition at 10 µM worked out at 100% and the IC50 was over 100 nM.

On to `Cn1c(=O)c2c(CC(=O)Nc3nc(-c4ccc(Cl)cc4)cs3)snc2n(C)c1=O` [Example 2, N-[4-(4-Chlorophenyl)-1,3-thiazol-2-yl]-2-(5,7-dimethyl-4,6-dioxo-4,5,6,7-tetrahydro[1,2]thiazolo[3,4-d]pyrimidin-3-yl)acetamide], for which, in test [1], the inhibition at 1 µM stood at 99.7%, the inhibition at 10 µM stood at 100% and the IC50 is under 50 nM. Moreover, in test [2], the inhibition at 1 µM worked out at 34.9% and the inhibition at 10 µM came to 43.8%.

For `Cn1c(=O)c2c(CC(=O)Nc3nc(-c4ccc(F)c(OC(F)(F)F)c4)cs3)snc2n(C)c1=O` [Example 3, 2-(5,7-Dimethyl-4,6-dioxo-4,5,6,7-tetrahydro[1,2]thiazolo[3,4-d]pyrimidin-3-yl)-N-{4-[4-fluoro-3-(trifluoromethoxy)phenyl]-1,3-thiazol-2-yl}acetamide], in test [1], the inhibition at 1 µM was determined as 95.5%, the inhibition at 10 µM was 99.5% and the IC50 is under 50 nM. In test [2], the inhibition at 1 µM was determined as 68.5%, the inhibition at 10 µM was 98.3% and the 50% inhibitory concentration (IC50) is over 100 nM.

As to `Cn1c(=O)c2c(CC(=O)Nc3nc(-c4ccc(C(F)(F)F)c(F)c4)cs3)snc2n(C)c1=O` [Example 4, 2-(5,7-Dimethyl-4,6-dioxo-4,5,6,7-tetrahydro[1,2]thiazolo[3,4-d]pyrimidin-3-yl)-N-{4-[3-fluoro-4-(trifluoromethyl)phenyl]-1,3-thiazol-2-yl}acetamide], in test [1], the inhibition at 1 µM was 99.8%, the inhibition at 10 µM is 100% and the IC50 was under 50 nM. In addition, in test [2], the inhibition at 1 µM was 72.2% and the inhibition at 10 µM was 100%.

With `Cn1c(=O)c2c(CC(=O)Nc3nc(-c4cccc(C(F)(F)F)c4F)cs3)snc2n(C)c1=O` [Example 5, 2-(5,7-Dimethyl-4,6-dioxo-4,5,6,7-tetrahydro[1,2]thiazolo[3,4-d]pyrimidin-3-yl)-N-{4-[2-fluoro-3-(trifluoromethyl)phenyl]-1,3-thiazol-2-yl}acetamide], in test [1], the inhibition at 1 µM was 98.1%, the inhibition at 10 µM came to 99.1% and the IC50 is under 50 nM. Besides, in test [2], the inhibition at 1 µM was determined as 95.6% and the inhibition at 10 µM is 98.5%.

Turning to `Cn1c(=O)c2c(CC(=O)Nc3nc(-c4ccc(Cl)c(C(F)(F)F)c4)cs3)snc2n(C)c1=O` [Example 6, 2-(5,7-Dimethyl-4,6-dioxo-4,5,6,7-tetrahydro[1,2]thiazolo[3,4-c]pyrimidin-3-yl)-N-{4-[4-chloro-3-(trifluoromethyl)phenyl]-1,3-thiazol-2-yl}acetamide], in test [1], the inhibition at 1 µM worked out at 99.3%, the inhibition at 10 µM was 99.6% and the IC50 is under 50 nM. Further, in test [2], the inhibition at 1 µM amounted to 97.3%, the inhibition at 10 µM amounted to 99.3% and the half-inhibitory concentration (IC50) is over 100 nM.

On to `Cn1c(=O)c2c(CC(=O)Nc3nc(-c4ccc(OC(F)(F)F)c(F)c4)cs3)snc2n(C)c1=O` [Example 7, 2-(5,7-Dimethyl-4,6-dioxo-4,5,6,7-tetrahydro[1,2]thiazolo[3,4-c]pyrimidin-3-yl)-N-{4-[3-fluoro-4-(trifluoromethoxy)phenyl]-1,3-thiazol-2-yl}acetamide], for which, in test [1], the inhibition at 1 µM came to 100%, the inhibition at 10 µM is 99.5% and the half-maximal inhibitory concentration (IC50) was under 50 nM. In addition, in test [2], the inhibition at 1 µM worked out at 79.4%, the inhibition at 10 µM turned out to be 100% and the IC50 was over 100 nM.

For the compound `Cn1c(=O)c2c(CC(=O)Nc3nc(-c4ccc(F)c(C(F)(F)F)c4F)cs3)snc2n(C)c1=O` [Example 9, N-{4-[2,4-Difluoro-3-(trifluoromethyl)phenyl]-1,3-thiazol-2-yl}-2-(5,7-dimethyl-4,6-dioxo-4,5,6,7-tetrahydro[1,2]thiazolo[3,4-d]pyrimidin-3-yl)acetamide], in test [1], the inhibition at 1 µM turned out to be 98.4%, the inhibition at 10 µM turned out to be 98.1% and the IC50 is under 50 nM. In addition, in test [2], the inhibition at 1 µM was determined as 94.7% and the inhibition at 10 µM was 94.1%.

On to `Cn1c(=O)c2c(CC(=O)Nc3nc(-c4cc(F)c(C(F)(F)F)c(F)c4)cs3)snc2n(C)c1=O` [Example 10, N-{4-[3,5-Difluoro-4-(trifluoromethyl)phenyl]-1,3-thiazol-2-yl}-2-(5,7-dimethyl-4,6-dioxo-4,5,6,7-tetrahydro[1,2]thiazolo[3,4-d]pyrimidin-3-yl)acetamide], for which, in test [1], the inhibition at 1 µM worked out at 99.9% and the inhibition at 10 µM came out at 100%. In test [2], the inhibition at 1 µM amounted to 35.2% and the inhibition at 10 µM turned out to be 68.4%.

As for `Cn1c(=O)c2c(CC(=O)Nc3ccn(-c4ccc(Br)cc4)n3)snc2n(C)c1=O` [Example 11, N-[1-(4-Bromophenyl)-1H-pyrazol-3-yl]-2-(5,7-dimethyl-4,6-dioxo-4,5,6,7-tetrahydro[1,2]thiazolo[3,4-d]pyrimidin-3-yl)acetamide], in test [1], the inhibition at 1 µM was 100%, the inhibition at 10 µM was found to be 100% and the IC50 was under 50 nM. In test [2], the inhibition at 1 µM was determined as 22.9% and the inhibition at 10 µM was determined as 39.7%.

In the case of `Cn1c(=O)c2c(CC(=O)Nc3nc(-c4ccc(Cl)cc4)cs3)nsc2n(C)c1=O` [Example 12, N-[4-(4-Chlorophenyl)-1,3-thiazol-2-yl]-2-(5,7-dimethyl-4,6-dioxo-4,5,6,7-tetrahydro[1,2]thiazolo[5,4-d]pyrimidin-3-yl)acetamide], in test [1], the inhibition at 1 µM came to 98.4%, the inhibition at 10 µM worked out at 99.2% and the IC50 is under 50 nM. In test [2], the inhibition at 1 µM was 94.6%, the inhibition at 10 µM amounted to 99.5% and the IC50 is over 100 nM.

In the case of `Cn1c(=O)c2c(CC(=O)Nc3nc(-c4cccc(C(F)(F)F)c4)cs3)nsc2n(C)c1=O` [Example 13, 2-(5,7-Dimethyl-4,6-dioxo-4,5,6,7-tetrahydro[1,2]thiazolo[5,4-d]pyrimidin-3-yl)-N-{4-[3-(trifluoromethyl)phenyl]-1,3-thiazol-2-yl}acetamide], in test [1], the inhibition at 1 µM was 99.7%, the inhibition at 10 µM came out at 99.8% and the IC50 was under 50 nM. In addition, in test [2], the inhibition at 1 µM was 99.3% and the inhibition at 10 µM is 99.3%.

`Cn1c(=O)c2c(CC(=O)Nc3nc(-c4ccc(C(F)(F)F)c(F)c4)cs3)nsc2n(C)c1=O` [Example 19, 2-(5,7-Dimethyl-4,6-dioxo-4,5,6,7-tetrahydro[1,2]thiazolo[5,4-d]pyrimidin-3-yl)-N-{4-[3-fluoro-4-(trifluoromethyl)phenyl]-1,3-thiazol-2-yl}acetamide]: in test [1], the inhibition at 1 µM came out at 99.7%, the inhibition at 10 µM is 100% and the IC50 is under 50 nM. In addition, in test [2], the inhibition at 1 µM worked out at 99.5%, the inhibition at 10 µM was determined as 99.3% and the IC50 was under 50 nM.

Take `Cn1c(=O)c2c(CC(=O)Nc3nc(-c4ccc(F)c(C(F)(F)F)c4)cs3)nsc2n(C)c1=O` [Example 20, 2-(5,7-Dimethyl-4,6-dioxo-4,5,6,7-tetrahydro[1,2]thiazolo[5,4-d]pyrimidin-3-yl)-N-{4-[4-fluoro-3-(trifluoromethyl)phenyl]-1,3-thiazol-2-yl}acetamide]: in test [1], the inhibition at 1 µM is 99.6%, the inhibition at 10 µM came out at 99.8% and the IC50 was under 50 nM. Moreover, in test [2], the inhibition at 1 µM amounted to 99.7%, the inhibition at 10 µM was 100% and the IC50 is under 50 nM.

Values taken from patent US8575178B2, “Isothiazolo-pyrimidinedione derivatives as TRPA1 modulators” (Glenmark Pharmaceuticals S.A., priority 2009, dated 2013).
